Measurements reported in patent US9919941B2, “Multiple uses of amine salts for industrial water treatment” (AMSA, Inc., priority 2012, dated 2018).
Values joined by “and” are separate entries in the source; they are usually repeats but may differ in a detail not shown here. Equal values may be shown once. Read-outs that look alike come from different tables or passages of the source.

Assays:
[1] = calcium carbonate scale inhibition (conductometric titration, supersaturation ratio Sr)
Procedure: To a 100 mL beaker were added 60 mL of HPLC-grade water and 3 mL of 0.1 M calcium chloride. An appropriate amount (0.5-4 mL) of an aqueous solution of the inhibitor compound of Formula (I) to be tested was then added. The solution was magnetically stirred at a constant speed for all experiments. The sample was then titrated with 0.1 M sodium carbonate. After addition of each 0.2 mL aliquot of sodium carbonate titrant, the solution was mixed for 1 min and then the conductivity of the solution measured.
As titrant is added the conductivity increases in a linear fashion. When the supersaturation point is reached, the conductivity decreases and precipitation begins. This is considered the endpoint of the titration. The resulting titration endpoint volumes are used to calculate a relative supersaturation ratio (Sr). This is the ratio of the supersaturation of calcium carbonate in the presence of the compound of Formula (I) being tested to the value of the supersaturation of water without inhibitor (distilled water plus 3 mL of 0.1 M calcium chloride). Thus, compounds with Sr>1 are displaying scale inhibition.
The scale inhibition performance of various compounds of Formula (I) and comparative compounds were compared at the same molar concentration. These compounds were tested at 60 μM concentration except where noted otherwise. Compound numbers are from Table 1.

[2] = mild steel corrosion inhibition, ASTM G31-72 coupon weight loss
Procedure: (§1) Corrosion inhibition studies of various compounds of Formula (I) were conducted according to ASTM method G31-72 (2004). The following is the general test method.
(§2) Aqueous solutions of the test compound (900 mL) were prepared with city water for mild steel corrosion studies or a dilute sea salt solution (1000 ppm in deionized water) for copper corrosion studies. The solutions were magnetically stirred at a constant rate in a 1 L beaker and three coupons of either mild steel or copper were suspended in each beaker. After 5 days (steel) or 7 days (copper), the coupons were removed and cleaned according to ASTM method G1-03. Average weight loss was determined for each set of three coupons and then converted to corrosion rate in terms of mils per year (mpy).
These tests compare the corrosion inhibition of compounds of Formula (I), namely from Table 1, in the first set of comparisons, Compound A with Compound 13, and Compound B with Compound 1, and with 2-hydroxypropane-1,2,3-tricarboxylic acid. Thus five samples were tested relative to a blank and a standard, (1-hydroxyethan-1,1-diyl)bis(phosphonic acid), after 5 days at 26 μM concentrations. […] Concentrations were 26 μM.
Additional mild steel corrosion tests were performed at 130 μM concentration of compounds of Formula (I) and comparative compounds for 5 days. The next test compared the corrosion inhibition of Compound 8 with 2,3-dihydroxybutanedioic acid and Compound B, and Compound 4 with (1-hydroxyethan-1,1-diyl)bis(phosphonic acid) and Compound B. Also included was Compound 1 for reference. Concentrations in this set were 130 μM.

[3] = copper corrosion inhibition, ASTM G31-72 coupon weight loss
Procedure: as §1, §2
The first test of copper corrosion inhibition compared Compound A with Compound 13 (from Table 1), 2-hydroxypropane-1,2,3-tricarboxylic acid, and a commercial inhibitor, Na-TAI.

[4] = test system: planktonic microbial population of cooling tower water; assay: time-kill biocidal efficacy, hybrid planktonic-sessile procedure: planktonic population; format: cell-based, natural mixed aerobic microbial population; details: for Planktonic, 20-24 h, % of Control / Planktonic, 48-54 h, % of Control / Planktonic, 120 h, % of Control / Planktonic CFU/10 mL, 20-24 h / Planktonic CFU/10 mL, 48-54 h / Planktonic CFU/10 mL, 120 h / Planktonic CFU/10 mL, Total / Planktonic, Total, % of Control / reduction in the total planktonic population / activity at 10 ppm: 10 ppm Compound B, others equimolar; for Planktonic, 20-24 h, % of Control / Planktonic, 48-54 h, % of Control / Planktonic, 120 h, % of Control / Planktonic CFU/10 mL, 20-24 h / Planktonic CFU/10 mL, 48-54 h / Planktonic CFU/10 mL, 120 h / Planktonic CFU/10 mL, Total / Planktonic, Total, % of Control / activity at 10 ppm: exposure 110 minutes; for Planktonic CFU/10 mL, 20-24 h: fast growing population; for Planktonic CFU/10 mL, 48-54 h: moderate growth rate population; for Planktonic CFU/10 mL, 120 h: slow growth rate population; for reduction in the total planktonic population: 110 minutes
Procedure: An experiment was conducted to assess biocidal effectiveness of Compounds A and B and their respective Compounds 13 and 1 anion analogs. Time-kill tests were conducted using a hybrid planktonic-sessile procedure which allowed assessment of biocidal effectiveness against both planktonic and sessile microbial populations. A natural mixed aerobic microbial population in samples collected from an operating cooling tower was used as inoculum for the test. Biocide test concentration for Compound B was 10 ppm. All other products were tested at the equivalent molar concentration. Biocide exposure was 110 minutes. The following procedure was used which generally followed the biocidal testing method of Walter, R. W. and Cooke, L. […] A New Multifunctional Biocide Which Enhances Corrosion Inhibition,” NACE Paper 410, 1997. A water sample was collected from a cooling tower that contained a natural mixed population of microorganisms that grew at different rates when plated on Petrifilm. The populations of cells that grew on Petrifilm in 20-24 hours, 48-54 hours and at 120 hours were treated as separate populations. […] The washers were allowed seven days to develop a biofilm on their surface. Prior to chemical treatment, 10 mL aliquots of the CTW were removed from the beaker and placed into individual exposure test tubes along with a single washer. Test compounds were then added to the individual tubes at equimolar concentrations. All exposure tests including untreated controls were conducted in triplicate (i.e., three washers in separate exposure tubes). After addition of the test compound, the tube was briefly mixed by mild vortexing and again occasionally throughout the exposure time. Determination of residual viable cell population in the bulk water: 1 mL of the water from the exposure tube was plated on petrifilm. A second 1 ml was added to 9 mL tube of Letheen broth and mixed by shaking 10 times. A 1 mL aliquot was plated on petrifilm, a second 1 mL aliquot was added to a 9 ml tube of Butterfields Broth and again shaken 10 times. This serial sequence of plating the dilution and subsequent 1/10 dilution was repeated through 10^-4 to 10^-5 dilution. Determination of colony forming units (CFU) at different incubation times: After plating the various solutions on Petrifilm, the films were incubated at 36° C. for the first 24 hours. At 20 hours the […] read and CFU were recorded. This population was defined as a fast growing population. The […] then incubated for additional time either at 36° C. or room temperature and read at 54 hours. This second population is in addition to the fast growth rate population and was defined as moderate growth rate organisms. Incubation was continued and the […] again after 120 hours. This third population was also treated as separate from the fast and moderate growth rate populations and is referred to as the slow growth rate population. As noted above, each compound was evaluated in triplicate with three separate washers and the results were averaged. Average CFU/mL values were used to calculate total planktonic test population (CFU/10 mL) and total sessile test population (CFU/washer) in each test system.

[5] = 130 μM, Table 5 (blank 12.5 mpy)
[6] = 5 days, 130 μM, Table 4 (blank 24 mpy)

Row | Structure (SMILES) | Sr (supersaturation ratio) ([1]; 60 μM) | Inhibition relative to blank [2, 5] | Inhibition relative to blank [2, 6] | Inhibition relative to blank ([3]; 42 μM, Table 7) | Planktonic, 20-24 h, % of Control ([4]; 20-24 h incubation) | Planktonic, 48-54 h, % of Control ([4]; 48-54 h incubation) | Planktonic, 120 h, % of Control ([4]; 120 h incubation) | Planktonic CFU/10 mL, 20-24 h ([4]; 20-24 h incubation) | Planktonic CFU/10 mL, 48-54 h ([4]; 48-54 h incubation) | Planktonic CFU/10 mL, 120 h ([4]; 120 h incubation) | Planktonic CFU/10 mL, Total ([4]; total population) | Planktonic, Total, % of Control ([4]; total population) | reduction in the total planktonic population [4] | further results
1 | CCCCCCCCCCOCCCN.O=C(O)CC(O)(CC(=O)O)C(=O)O [Compound 1, 2-hydroxypropane-1,2,3-tricarboxylic acid salt of aminopropyloxydecane] | 1.4 | 87% | 88% | 54% | 97.9% | 90.3% | 28.4% | 970 CFU/10 mL | 340,000 CFU/10 mL | 2,280,000 CFU/10 mL | 2,620,000 CFU/10 mL | 31.1% | – | Inhibition relative to blank ([2]; 5 days, 26 μM, Table 3): 60%; biocidal effectiveness compared with parent salt (in words) ([4]; planktonic and sessile populations, same experimental conditions and molar concentration): very similar (within experimental error) to those obtained with Compound B
2 | CCCCCCCCCCSCCN.Cl [Compound A, 2-(decylthio)ethanamine hydrochloride] | 1.0 | – | – | – | – | – | – | 940 CFU/10 mL | 13,500 CFU/10 mL | 227,000 CFU/10 mL | 241,000 CFU/10 mL | – | 97% | Sr (supersaturation ratio) ([1]; 64 μM): 1.2; Inhibition relative to blank ([2]; 5 days, 26 μM, Table 3, hydrochloride): 3.3% and 3%; Inhibition relative to blank ([3]; 7 days, 17 μM, Table 6): 41%; activity at 10 ppm ([4]; 20-24 h incubation, read-out: Planktonic, 20-24 h, % of Control): 94.9%; activity at 10 ppm ([4]; 48-54 h incubation, read-out: Planktonic, 48-54 h, % of Control): 3.6%; activity at 10 ppm ([4]; 110 min, total population, read-out: Planktonic, Total, % of Control): 2.9%; activity at 10 ppm ([4]; 120 h incubation, read-out: Planktonic, 120 h, % of Control): 2.8%
3 | CC(=O)O.CCCCCCCCCCOCCCN [Compound B, ethanoic acid salt of aminopropyloxydecane] | 1.0 | −1% | −1% | 32% | 81.7% | 85.0% | 34.6% | 810 CFU/10 mL | 320,000 CFU/10 mL | 2,780,000 CFU/10 mL | 3,100,000 CFU/10 mL | 36.8% | 63% | scale inhibition (in words) ([1]; about 60 μM): no scale inhibition; Inhibition relative to blank ([2]; 5 days, 26 μM, Table 3, 26 µM): 1.6% and 2%
